Test results as given in patent US20130171198A1, “ANTIMICROBIAL AND VULNERARY ACTION PHARMACEUTICAL COMPOSITION FOR EXTERNAL APPLICATION AND ITS PRODUCTION PROCESS” (priority 2010, published 2013).

Experiments:
[1] = Fosfomycin sorption by BHSiO2 particles; type: physicochemical
Source text: Fosfomycin sorption rate by BHSiO2 particles was 20-25%.

[2] = Incision model, guiney pigs, external application of powder; type: in vivo; settings: for Incision length (cm) Me: powder form, external application daily
Protocol: (§1) The experiments were conducted using adult rabbits “Chinchilla” (males, weight 3-3.5 kg) and random bred guiney pigs (males, weight 0.8-0.9 kg) according to the “Regulations for test animals use” (USSR Ministry of health order supplement #755 from 12.08. 1977). There have been made several incisions with a sterile scalpel on the left and right side of the depilated coupling area (1.5% novocain solution was used for local anesthesia); incision 2 cm long and 0.8 cm deep with muscular layer seizure for guiney pigs and 2 cm long and 1 cm deep with muscular layer seizure for rabbits. Each day in 8 days period (starting with the very first day) the wounds of the animals control group was bathed with a sterile normal saline solution, were covered with a sterile tissue fixed with a plaster. The wounds of the test group animals were bathed with a sterile saline solution, then dried and then dusted with fosfomycin sterile powder uniform layer (2-3 mm) or a same layer pharmaceutical composition (for guiney pigs), the wounds of the test rabbits were irrigated with a sterile 2.5% fosfomycin solution or sterile 5% pharmaceutical composition suspension, after that they were dried and covered with a sterile tissue fixed with a plaster. The regenerative process dynamics was monitored during 9 days. The medics measured the length of the wound open area and made a visual evaluation of wound edges and walls, the presence and character of the exudates, necrosis presence. The test results can be seen in Tables No 2 and No 3. The statistical data processing has been made with a program Statistica 6.0. The experimental data are presented as median (Me), Low and High quartile (LQ-HQ), the difference authenticity has been calculated using Student t-criterion with p<0.05 values.

[3] = Incision model, rabbits, external application of solution/suspension; type: in vivo; settings: for Incision length (cm) Me: 2.5% fosfomycin solution or 5% composition suspension
Protocol: as §1

[4] = system: infected S. aureus thermal burn; assay: Infected thermal burn model, guiney pigs; type: in vivo; settings: for Necrosis area (cm^2) / Thermal burn area (cm^2): 2.5% solution or 5% suspension
Protocol: The experiments were conducted using adult rabbits “Chinchilla” (males, weight 3-3.5 kg) and random bred guiney pigs (males, weight 0.8-0.9 kg) according to the “Regulations for test animals use” (USSR Ministry of health order supplement #755 from 12.08. 1977). There have been made several skin integument burnings with a warmed up on the burner flame metallic applicator on the left and right side of the depilated coupling area (1.5% novocain solution was used for local anesthesia) by attaching it to the skin and holding for 40 seconds. In the center of the ambustial area there has been intracutaneously inserted Staphylococcus aureus (ATCC No 25923 F-49) daily suspension with a 0.1 ml volume in a 10^10 CFU/ml dosage. Each day in 13 days period (starting with the very first day) the burnings of the animals control group was bathed with a sterile normal saline solution, dried and covered with a sterile tissue fixed with a plaster. The burnings of the test animals were irrigated with a sterile 2.5% fosfomycin solution or sterile 5% pharmaceutical composition suspension, after that they were dried and covered with a sterile tissue fixed with a plaster. The burnings condition dynamics was monitored during 14 days. The medics measured the burning wound surface and necrosis area in the center of the burning wound. You may see the results in the table No 4. The statistical data processing has been made with a program Statistica 6.0. The experimental data are presented as median (Me), Low and High quartile (LQ-HQ), the difference authenticity has been calculated using Student t-criterion with p<0.05 values.

[5] = 2.5% solution / 5% water suspension

Fosfomycin sorption rate by BHSiO2 particles [1]: 20-25%
SMILES: C[C@@H]1O[C@@H]1P(=O)(O)O [Fosfomycin, fosfomycin]
Incision length (cm) Me ([2]; Day 2): 0.9 cm | Incision length (cm) Me ([2]; Day 6): 0.5 cm | Incision length (cm) Me ([2]; Day 9): 0.3 cm | Incisions regeneration process versus control group ([2]; powder forms): authentically increase incisions regeneration process comparing to the control group | Incision length (cm) Me ([3]; Day 2): 0.5 cm | Incision length (cm) Me ([3]; Day 6): 0.4 cm | Incision length (cm) Me ([3]; Day 9): 0.25 cm | Incisions regeneration process versus control group [3, 5]: authentically increase incisions regeneration process comparing to the control group | Infected S. aureus thermal burn regeneration process versus control group [4, 5]: authentically increase infected S. aureus thermal burn regeneration process comparing to the control group | Necrosis area (cm^2) ([4]; Day 2): 0.0 cm^2 | Thermal burn area (cm^2) ([4]; Day 2): 1.2 cm^2 | Necrosis area (cm^2) ([4]; Day 6): 0.3 cm^2 | Thermal burn area (cm^2) ([4]; Day 6): 0.8 cm^2 | Necrosis area (cm^2) ([4]; Day 9): 0.25 cm^2 | Thermal burn area (cm^2) ([4]; Day 9): 0.7 cm^2 | Necrosis area (cm^2) ([4]; Day 14): 0.2 cm^2 | Thermal burn area (cm^2) ([4]; Day 14): 0.4 cm^2
